Test results as given in patent EP4748839A1 (CSPC Zhongqi Pharmaceutical Technology (Shijiazhuang) Co., …, priority 2023, dated 2025).

Target: T1, GLP-1R (Homo sapiens, UniProt P43220)
T1 construct: expressed in transfected cells
Test: GLP-1R agonistic effect in GLP1R-cAmp-Luc cells (luciferase reporter; titled 'Enzymatic assay')
Type: cell-based
Conditions: for EC50: 4 hours incubation, firefly luciferin signal; for EC50 of Positive reference / EC50 of Compound of the Present Application: Positive reference is PF-06882961
Experimental: The GLP-1R agonistic effects of the test compounds were determined using GLP1R-cAmp-Luc cells. 1) The test compound was dissolved in DMSO and mixed well until the test compound was completely dissolved. The test compounds were dissolved in DMSO to prepare 10 mM stock solutions. All compounds were diluted with DMEM medium (high sugar, Puromycin^+, Hygromycin B^+) to an initial concentration of 1250 nM, and then subjected to 5-fold serial dilution to a total of 7 concentration gradients. The GLP1R-cAmp-Luc cells were seeded in white-wall 96-well cell culture plates at a density of 1×10^5/mL, with 90 µL cell suspension per well; the test compound at each of the 7 concentration gradients was added at 10 µL per well, with the actual initial working concentration of 125 nM; and the cells were placed in a 37 °C, 5% CO2 cell incubator for 4 hours; 2) 100 µL of luciferin potassium salt solution diluted to 300 µg/mL in PBS was added to each well at a working concentration of 150 µg/mL and incubated at room temperature for 30 minutes; 3) fluorescence signals of firefly luciferin were measured with a multifunctional microplate reader (PerkinElmer, Nivo); and the fluorescence values were processed using GraphPad Prism software to calculate EC50 values.

T1 sequence (P43220 24-463, species assumed): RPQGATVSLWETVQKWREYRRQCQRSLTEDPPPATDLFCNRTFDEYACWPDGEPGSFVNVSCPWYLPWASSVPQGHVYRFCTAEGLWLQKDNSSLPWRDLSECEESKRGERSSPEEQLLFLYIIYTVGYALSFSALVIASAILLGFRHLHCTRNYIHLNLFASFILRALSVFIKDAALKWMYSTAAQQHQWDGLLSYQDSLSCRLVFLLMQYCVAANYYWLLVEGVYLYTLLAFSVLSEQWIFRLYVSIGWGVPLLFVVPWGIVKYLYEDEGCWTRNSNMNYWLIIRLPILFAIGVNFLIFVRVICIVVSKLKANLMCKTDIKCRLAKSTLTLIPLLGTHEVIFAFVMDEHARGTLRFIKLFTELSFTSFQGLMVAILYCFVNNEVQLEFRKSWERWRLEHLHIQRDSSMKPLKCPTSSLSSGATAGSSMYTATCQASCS

Row | Structure (SMILES) | EC50 [nM] | EC50 of Positive reference / EC50 of Compound of the Present Application
1 | CCn1cncc1Cn1c(Cc2c(F)cc(-c3cccc(OCc4ccc(Cl)cc4F)n3)c3c2CCO3)nc2c(OC)cc(C(=O)O)cc21 [Compound 111] | 1 to 5 | 
2 | N#Cc1ccc(COc2cccc(-c3ccc(Cc4nc5ccc(C(=O)O)cc5n4C[C@@H]4CCO4)c4c3OCO4)n2)c(F)c1 [Compound 1, (S)-2-((7-(6-((4-cyano-2-fluorobenzyl)oxy)pyridin-2-yl)benzo[d][1,3]dioxolan-4-yl)methyl)-1-(oxetan-2-ylmethyl)-1H-benzo[d]imidazole-6-carboxylic acid] | 5 to 10 | 
3 | O=C(O)c1ccc2nc(Cc3c(F)cc(-c4ccnc(OCc5ccc(Cl)cc5F)n4)c4c3CCO4)n(C[C@@H]3CCO3)c2c1 [Compound 124, (S)-2-((7-(2-((4-chloro-2-fluorobenzyl)oxy)pyrimidin-4-yl)-5-fluoro-2,3-dihydrobenzofuran-4-yl)methyl)-1-(oxetan-2-ylmethyl)-1H-benzo[d]imidazole-6-carboxylic acid] | ≤ 1 | 
4 | COc1cc(C(=O)O)cc2c1nc(Cc1c(F)cc(-c3ccnc(OCc4ccc(Cl)cc4F)n3)c3c1CCO3)n2CC1(CF)CC1 [Compound 112, 2-((7-(2-((4-Chloro-2-fluorobenzyl)oxy)pyrimidin-4-yl)-5-fluoro-2,3-dihydrobenzofuran-4-yl)methyl)-1-((1-(fluoromethyl)cyclopropyl)methyl)-4-methoxy-1H-benzo[d]imidazole-6-carboxylic acid] | 1 to 5 | 
5 | O=C(O)c1ccc2nc(Cc3ccc(-c4cccc(OCc5ccc(Cl)cc5F)n4)c4c3CCC4=O)n(C[C@@H]3CCO3)c2c1 [Compound 20, (S)-2-((7-(6-((4-chloro-2-fluorobenzyl)oxy)pyridin-2-yl)-1-oxo-2,3-dihydro-1H-inden-4-yl)methyl)-1-(oxetan-2-ylmethyl)-1H-benzo[d]imidazole-6-carboxylic acid] | 1 to 5 | 
6 | N#CCC1(Cn2c(Cc3c(Cl)cc(-c4cccc(OCc5ccc(C#N)cc5F)n4)c4c3CCO4)nc3ccc(C(=O)O)nc32)CC1 [Compound 19, 2-((5-chloro-7-(6-((4-cyano-2-fluorobenzyl)oxy)pyridin-2-yl)-2,3-dihydrobenzofuran-4-yl)methyl)-3-((1-(cyanomethyl)cyclopropyl)methyl)-3H-imidazo[4,5-b]pyridine-5-carboxylic acid] | 1 to 5 | 
7 | COc1cc(C(=O)O)cc2c1nc(Cc1c(F)cc(-c3ncc(F)c(OCc4ccc(C5COC5)cc4F)n3)c3c1CCO3)n2C[C@@H]1CCO1 [Compound 129, (S)-2-((7-(5-fluoro-4-((2-fluoro-4-(oxetan-3-yl)benzyl)oxy)pyrimidin-2-yl)-5-fluoro-2,3-dihydrobenzofuran-4-yl)methyl)-4-methoxy-1-(oxetan-2-ylmethyl)-1H-benzo[d]imidazole-6-carboxylic acid] | ≤ 1 | 
8 | COc1cc(C(=O)O)cc2c1nc(Cc1c(F)cc(-c3cccc(OCc4ccc(C#N)cc4F)n3)c3c1CCO3)n2C[C@@H]1CCO1 [Compound 100, (S)-2-((7-(6-((4-cyano-2-fluorobenzyl)oxy)pyridin-2-yl)-5-fluoro-2,3-dihydrobenzofuran-4-yl)methyl)-4-methoxy-1-(oxetan-2-ylmethyl)-1H-benzo[d]imidazole-6-carboxylic acid] | ≤ 1 | Ratio ≥10
9 | COc1cc(C(F)(F)F)ccc1COc1nccc(-c2cc(F)c(Cc3nc4c(OC)cc(C(=O)O)cc4n3C[C@@H]3CCO3)c3c2OCC3)n1 [Compound 110, (S)-2-((7-(2-((2-methoxy-4-(trifluoromethyl)benzyl)oxy)pyrimidin-4-yl)-5-fluoro-2,3-dihydrobenzofuran-4-yl)methyl)-4-methoxy-1-(oxetan-2-ylmethyl)-1H-benzo[d]imidazole-6-carboxylic acid] | ≤ 1 | Ratio ≥10
10 | O=C(O)c1ccc2nc(Cc3c(F)cc(-c4cccc(OCc5ccc(Cl)cc5OC(F)F)n4)c4c3CCO4)n(C[C@@H]3CCO3)c2c1 [Compound 95, (S)-2-((7-(6-((4-chloro-2-(difluoromethoxy)benzyl)oxy)pyridin-2-yl)-5-fluoro-2,3-dihydrobenzofuran-4-yl)methyl)-1-(oxetan-2-ylmethyl)-1H-benzimidazole-6-carboxylic acid] | ≤ 1 | 

Next, values leading:

Row | EC50 [nM] | EC50 of Positive reference / EC50 of Compound of the Present Application | Structure (SMILES)
11 | ≤ 1 | Ratio ≥10 | COc1cc(C(=O)O)cc2c1nc(Cc1c(F)cc(-c3cccc(OCc4ccc(Cl)cc4OC(F)F)n3)c3c1CCO3)n2C[C@@H]1CCO1 [Compound 84, (S)-2-((7-(6-((4-chloro-2-(difluoromethoxy)benzyl)oxy)pyridin-2-yl)-5-fluoro-2,3-dihydrobenzofuran-4-yl)methyl)-4-methoxy-1-(oxetan-2-ylmethyl)-1H-benzo[d]imidazole-6-carboxylic acid]
12 | ≤ 1 | Ratio ≥10 | N#Cc1ccc(COc2cccc(-c3cc(F)c(Cc4nc5c(F)cc(C(=O)O)cc5n4C[C@@H]4CCO4)c4c3OCC4)n2)c(F)c1 [Compound 13, (S)-2-((7-(6-((4-cyano-2-fluorobenzyl)oxy)pyridin-2-yl)-5-fluoro-2,3-dihydrobenzofuran-4-yl)methyl)-4-fluoro-1-(oxetan-2-ylmethyl)-1H-benzo[d]imidazole-6-carboxylic acid]
13 | 1 to 5 | Ratio ≥10 | CCOc1cc(C(=O)O)cc2c1nc(Cc1c(F)cc(-c3ccc(F)c(OCc4ccc(Cl)cc4F)n3)c3c1CCO3)n2C[C@@H]1CCO1 [Compound 122, (S)-2-((7-(6-((4-chloro-2-fluorobenzyl)oxy)-5-fluoropyridin-2-yl)-5-fluoro-2,3-dihydrobenzofuran-4-yl)methyl)-4-ethoxy-1-(oxetan-2-ylmethyl)-1H-benzo[d]imidazole-6-carboxylic acid]
14 | 1 to 5 |  | CC(C)Oc1cc(C(=O)O)cc2c1nc(Cc1c(F)cc(-c3ccnc(OCc4ccc(Cl)cc4F)n3)c3c1CCO3)n2C[C@@H]1CCO1 [Compound 119, (S)-2-((7-(2-((4-chloro-2-fluorobenzyl)oxy)-pyrimidin-4-yl)-5-fluoro-2,3-dihydrobenzofuran-4-yl)methyl)-4-isopropoxy-1-(oxetan-2-ylmethyl)-1H-benzo[d]imidazole-6-carboxylic acid]
15 | ≤ 1 | Ratio ≥10 | COc1cc(C(=O)O)cc2c1nc(Cc1c(F)cc(-c3cccc(OCc4ccc(Cl)cc4F)n3)c3c1CCO3)n2C[C@@H]1CCO1 [Compound 81, (S)-2-((7-(6-((4-chloro-2-fluorobenzyl)oxy)pyridin-2-yl)-5-fluoro-2,3-dihydrobenzofuran-4-yl)methyl)-4-methoxy-1-(oxetan-2-ylmethyl)-1H-benzo[d]imidazole-6-carboxylic acid]
16 | ≤ 1 | Ratio ≥10 | COc1cc(C(=O)O)cc2c1nc(Cc1c(F)cc(-c3ccc(F)c(OCc4ccc(Cl)cc4OC(F)F)n3)c3c1CCO3)n2C[C@@H]1CCO1 [Compound 114]
17 | 1 to 5 |  | COc1cc(C(=O)O)cc2c1nc(Cc1c(F)cc(-c3ccc(Cl)c(OCc4ccc(Cl)cc4F)n3)c3c1CCO3)n2C[C@@H]1CCO1 [Compound 108, (S)-2-((7-(5-chloro-6-((4-chloro-2-fluorobenzyl)oxy)pyridin-2-yl)-5-fluoro-2,3-dihydrobenzofuran-4-yl)methyl)-4-methoxy-1-(oxetan-2-ylmethyl)-1H-benzo[d]imidazole-6-carboxylic acid]
